Key:
HUVECs = assay: Tubule formation in HUVECs on reduced growth factor extracellular matrix; format: cell-based, human; settings: 10 and 100 ng/ml compared to the control
Method: (§1) Human umbilical vein endothelial cells (HUVECs; Lonza C2519AS, pooled source, Australia) were grown using standard cell culture conditions in endothelial cell growth medium (EGM Plus®, containing 2% fetal bovine serum, Lonza, Australia). All cells were regularly confirmed to be mycoplasma negative. Two different pooled source cell lines were used in experiments and all were used within passages 2-4. Human adult dermal microvascular endothelial cells were also obtained from Lonza (CC-2543, Lonza Australia) and cultured as above but using endothelial growth medium 2-MV bulletkit. Endothelial colony forming cells (ECFCs) were derived from the peripheral blood of participants in the BioHEART study. This registered study (ACTRN12618001322224) complies with the Declaration of Helsinki and the study protocol and design has been approved by the Northern Sydney Local Health District Human Research Ethics Committee (HREC/17/HAWKE/343). […]
(§2) Once they were ˜70% confluent, cells were re-suspended in diluted EGM Plus® (1:3) and plated on reduced-growth factor extracellular matrix (15 mg/ml, Cultrex, Trevigen, USA) at a density of 1.5×10^4 cells/cm^2. […] Cells were incubated in an EVOS FL Auto Imaging system for 16 hours and tubule formation recorded every hour. Optimal tube formation occurred at the 8-hour timepoint; tubule number at this point was quantified manually using NIH Image J software. […]

[1] = tested on: human adult dermal microvascular endothelial cells (MVEC); assay: Tubule formation in human adult dermal microvascular endothelial cells; format: cell-based; settings: CL 316,243 100 ng/ml
Method: as §1, §2

eNOS [2] = assay: NOS activity by radioimmunoassay in hind limb tissue; format: in vivo, mouse; settings: ischemic and non-ischemic limbs, 14 days post-surgery
Method: (§3) Hind limb tissue including the gastrocnemius and adductor muscles were isolated and collected at 14 or 28 days. Tissues were separated and implanted in OCT or placed in cryovials and snap-frozen in liquid nitrogen or were fixed in 10% formalin for 24-hours and then moved to 70% ethanol for storage.
The activity of NOS was measured using radioimmunoassay according to manufacturer's instructions (Cayman Chemical, USA). Samples were prepared in triplicate and detected using a liquid scintillation counter (5 min detection, Tri-Carb 4910TR 100V, Perkin Elmer, USA). All samples were also assayed in the presence of L-NAME and this was subtracted from the baseline to give a readout of NOS activity.

Nox 2 = assay: Immunoblot of hind limb Nox 2 expression; format: in vivo, mouse; settings: ischemic limb, non-diabetic mice, n=4, P>0.05
Method: as §3
Gastrocnemius samples were stored at −80° C. and then mechanically homogenized in ice-cold lysis buffer containing 150 mmol/L NaCl, 200 mmol/L Tris-HCl (pH 8.0), 1% Triton X-100, 0.5% deoxycholic acid, 0.1% SDS, N-ethylmaleimide (25 mM) and protease inhibitors (cOmplete™ EDTA-free, Roche Diagnostics). 30 μg of protein lysate was denatured and run under reducing conditions on SDS-PAGE (Bolt™ pre-cast gels and reagents, Thermofisher Scientific, Australia) and transferred onto Immobilon polyvinylidene fluoride membrane (Merck Millipore, Australia). […] Membranes were detected using an Odyssey imaging platform (Licor, USA).

nitrotyrosine = assay: Immunoblot of nitrotyrosine in hind limb tissue; format: in vivo, mouse; settings: ischemic hind limbs of type 1 diabetic mice
Method: (§4) Gastrocnemius samples were stored at −80° C. and then mechanically homogenized in ice-cold lysis buffer containing 150 mmol/L NaCl, 200 mmol/L Tris-HCl (pH 8.0), 1% Triton X-100, 0.5% deoxycholic acid, 0.1% SDS, N-ethylmaleimide (25 mM) and protease inhibitors (cOmplete™ EDTA-free, Roche Diagnostics). 30 μg of protein lysate was denatured and run under reducing conditions on SDS-PAGE (Bolt™ pre-cast gels and reagents, Thermofisher Scientific, Australia) and transferred onto Immobilon polyvinylidene fluoride membrane (Merck Millipore, Australia). Membranes were incubated in primary antibodies directed at determining protein expression of the following: Nox isoforms (anti-Nox 2, 1:5000; Abcam, Australia; anti-Nox-4, 1:5000; Abcam, Australia); reactive nitrogen species (anti-nitrotyrosine, 1:1000; Abcam, Australia); and both expression and phosphorylation of eNOS (anti Phospho eNOS serine 1177, 1:1000, Cell Signaling Technology, USA; anti-eNOS 1:1000, BD Biosciences, USA) and Akt (anti Phospho Akt 1:1000, Akt 1:1000, Cell Signaling Technology, USA). Specific secondary antibodies recognizing rabbit or mouse primary antibodies were used (IRDye®, Licor; 1:20,000, USA). Membranes were detected using an Odyssey imaging platform (Licor, USA).

eNOS [3] = assay: eNOS immunoprecipitation, glutathionylation of eNOS in ischemic hind limb; format: in vivo, mouse; settings: ischemic limbs of type 1 diabetes mice
Method: Gastronemius protein (500 μg) extracted as above was used for co-immunoprecipitation with eNOS. Protein G dynabeads (1.5 mg/ml, 2.8 μm beads, Thermofisher Scientific, Australia) were covalently conjugated with mouse anti-eNOS antibody (BD Biosciences, 1 μg) using bis(sulfosuccinimidyl) suberate amine-amine cross-linking solution (5 mM; ThermoFisher Scientific, Australia). Beads were washed with PBS and incubated with protein lysate overnight at 4° C. IgG controls were prepared using anti-IgG antibodies conjugated to dynabeads using an identical process. Protein was eluted from beads using LDS buffer, denatured and run in non-reduced conditions on 8% Bis-Tris gels using SDS-PAGE and transferred onto polyvinylidene fluoride membrane as above. Expression of oxidized glutathione was detected using mouse anti-glutathione antibody (Virogen, 1:1000). eNOS was detected using rabbit anti-eNOS (Cell Signaling Technology, 1:1000, Australia). Odyssey detection system was used to visualize bands as above.

eNOS [4] = assay: Immunoblot of eNOS expression and serine 1177 phosphorylation in ischemic hind limb; format: in vivo, mouse; settings: ischemic hindlimb, type 1 diabetes model
Method: as §4

For `C[C@H](Cc1ccc2c(c1)OC(C(=O)[O-])(C(=O)[O-])O2)NC[C@H](O)c1cccc(Cl)c1.[Na+].[Na+]` [CL 316,243], the “number of tubules formed” value (HUVECs) was “significantly increased”, the “angiogenesis (tubule formation) in endothelial cells from adults, dermal source” value [1] was “stimulated angiogenesis” and the eNOS activity (eNOS [2]) was “enhanced eNOS activity”. For the same compound, the “Nox 2 hind limb protein expression” value (Nox 2) was 1.04±0.46 fold change from vehicle, the “decrease of nitrotyrosine protein levels” value (nitrotyrosine) was over 70% and the “glutathionylation of eNOS” value (eNOS [3]) was “largely abolished”. The eNOS expression (eNOS [4]) was “unaltered” and the “phosphorylation of eNOS at serine 1177” value (eNOS [4]) was “did not appear to be affected”.

— patent publication US20240148701A1, “WOULD HEALING METHODS” (The University of Sydney, priority 2021, published 2024)
